Results taken from US11835522B2, “Sensors for detecting and imaging of cancer metastasis” (Massachusetts Institute of Technology, priority 2019, dated 2023).

What was measured:
CRC liver metastases = test: 5-FU treatment monitored with PRISM, CRC liver metastasis model; format: in vivo, mice; conditions: 5-FU 15 mg/kg i.p.
Excerpt: (§1) After validation of the efficacy of tailored PRISM nanoparticles, these sensors were applied to study how proteolytic activities correlate with changes in the progression of disease over time and in response to drug treatment. In addition, molecular imaging was safely performed for any lesion for multiple times, providing information related to regional heterogeneity in a given tumor. To evaluate PRISM in monitoring treatment responses, mice were grouped into two categories (n=5 each) to allow monitoring the effect of standard chemotherapy 5-FU treatment: one group received drug (15 mg/kg) by i.p. injection (daily injection for 4 days and once every other day till end of study); and the second group received vehicle as control. To monitor therapeutic responses in treating metastases, PRISM was intravenously injected in each group of mice. After 1 hr of sensor injection, urinary reporter level was assayed to track local proteolytic activity, reflecting tumor invasion capacity. At 6 hrs post-injection, mice were scanned using a small animal PET/CT imager for longitudinal assessment of the tumor progression. […] Real-time images were analyzed and standard uptake value of radioactive reporters were quantified using VivoQuant software.

CRC lung metastases = test: 5-FU treatment monitored with PRISM, CRC lung metastasis model; format: in vivo, mice
Excerpt: as §1
To monitor therapeutic responses when metastases in the CRC lung metastasis model were treated, PRISM was again intravenously injected in two group of mice on a weekly basis. One hour following sensor injection, urinary reporter level was read to track the local proteolytic activity. […] 6 hours after sensor injection, PET/CT were applied to monitor tumor growth or regression, which provides a longitudinal, noninvasive assessment of the efficacy of anti-tumor drug treatment. […] Consistently, the relative lung/liver ratio of PET/CT signal in the cohort that received no treatment was over 3 times higher than that of the cohort treated with chemotherapy (n=5) (FIG. 6G).

O=c1[nH]cc(F)c(=O)[nH]1 [5-FU]
tumor progression / tumor growth vs untreated (CRC liver metastases; started two weeks after tumor inoculation, PET/CT): significantly inhibited tumor progression | urinary reporter level vs non-treated cohort (CRC liver metastases; urine 1 hr after PRISM injection): decreased urinary reporter level | urinary reporter level vs untreated control group (CRC lung metastases; 5-FU treated mice, urine one hour after PRISM injection): Significantly reduced urinary reporter levels | tumor growth vs untreated controls (CRC lung metastases; PET/CT 6 hours after sensor injection): slower tumor growth | relative lung/liver ratio of PET/CT signal, untreated cohort relative to 5-FU treated cohort (CRC lung metastases; n=5, FIG. 6G): over 3 times
